Molecules are shown by their SMILES.

One experiment addresses T1, Thromboxane A2 receptor (Homo sapiens, UniProt P21731).
T1 sequence (P21731 whole entry): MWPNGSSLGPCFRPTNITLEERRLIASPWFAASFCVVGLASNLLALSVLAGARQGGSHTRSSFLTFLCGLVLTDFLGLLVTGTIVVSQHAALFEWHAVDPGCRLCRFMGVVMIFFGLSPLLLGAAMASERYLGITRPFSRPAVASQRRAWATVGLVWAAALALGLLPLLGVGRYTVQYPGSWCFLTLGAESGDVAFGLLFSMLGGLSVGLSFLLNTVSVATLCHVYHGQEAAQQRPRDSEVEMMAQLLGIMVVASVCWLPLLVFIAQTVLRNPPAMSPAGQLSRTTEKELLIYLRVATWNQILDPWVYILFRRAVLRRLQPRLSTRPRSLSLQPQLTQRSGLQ
Nature of the experiment: ChEBML_209427. The source says:
Inhibitory activity against U-46,619-induced responses in human platelet aggregation (Thromboxane A2 alpha receptor)
For the molecule `COc1cc(CC2NCCc3c(F)c(O)c(O)c(F)c32)cc(OC)c1OC` (stereo unspecified) [TMQ, 5,8-Difluoro], the IC50 was determined as 158 µM.
`COc1cc(CC2NCCc3c2cc(O)c(O)c3I)cc(OC)c1OC` (stereo unspecified) [TMQ, 5-Iodo] registered an IC50 of 120 µM.
Same read-out and setting: the same measure for `COc1cc(CC2NCCc3c2cc(O)c(O)c3C(F)(F)F)cc(OC)c1OC` (stereo unspecified) [TMQ, 5-TrifluoroMe]: 832 µM; for `COc1cc(CC2NCCc3cc(O)c(O)c(I)c32)cc(OC)c1OC` (stereo unspecified) [TMQ, 8-Iodo]: 3.09 µM.

Target in another experiment: not listed separately
Nature of the experiment: Inhibitory activity against U-46,619-induced responses in human platelet aggregation (Thromboxane A2 alpha receptor).
As for `COc1cc(C[C@H]2NCCc3cc(O)c(O)c(F)c32)cc(OC)c1OC` [TMQ, R-(-)-8-Fluoro], the midpoint of inhibition, the IC50, lay at 2.46 µM.
Molecule `COc1cc(C[C@@H]2NCCc3cc(O)c(O)c(F)c32)cc(OC)c1OC` [TMQ, S-(+)-8-Fluoro] had an IC50 of 39.8 µM.

For the origin of these results see BindingDB's records for doi:10.1021/jm00081a007 (Ohio State University, 1992).
